Laboratory results published in patent US10525064B2, “Anticancer adjuvant containing panaxadiol ginsenocide compound” (priority 2015, dated 2020).
Converted amounts (≈) assume the structure as drawn.

Tests used:
MCF-7 cells [1] = test: WST-1 viability assay, ginsenoside pretreatment followed by doxorubicin or tamoxifen; type: cell-based; details: for effect on anticancer activity of doxorubicin: then doxorubicin 5 μg/mL 24 hours, FIG. 2A; for anticancer activity of doxorubicin with ginsenoside compared to doxorubicin alone: ginsenoside 10 μg/mL, doxorubicin 0-50 μg/mL
Procedure: Specifically, each of the PPD-type ginsenoside compounds (F2, Rh2, C-K, or PPD) at a concentration of 10 μg/mL was added to MCF-7 cells, cultured for 12 hours, and treated with 20 μM tamoxifen or doxorubicin (5 μg/mL) and cultured for 24 hours. Upon completion of the cultivation, the viability of MCF-7 cells was compared by WST-1 assay (FIG. 2A).
In this regard, to determine whether the C-K or PPD affects the treatment concentration of doxorubicin, the PPD-type ginsenoside compound (C-K or PPD) was added to the MCF-7 cells at a concentration of 10 μg/mL and cultured for 12 hours. Then, the MCF-7 cells were treated with doxorubicin at various concentrations (0 μg/mL, 0.1 μg/mL, 0.5 μg/mL, 1 μg/mL, 2 μg/mL, 5 μg/mL, 10 μg/mL, and 50 μg/mL) and cultured for 24 hours. Upon completion of the culture, the viability of the MCF-7 cells and the LC50 values calculated therefrom were compared by WST-1 assay (FIG. 2B).

MCF-7 cells [2] = test: WST-1 viability assay, PPD-type ginsenoside compounds alone; type: cell-based, human; details: 0-200 μg/mL, 24 hours, FIG. 1
Procedure: First, MCF-7 cells, a human breast cancer cell line, were inoculated into DMEM medium containing 10% FBS and 1% penicillin/streptomycin, cultured in conditions of 5% CO2 and 37° C. When the cultured MCF-7 cells were saturated the cells were sub-cultured at intervals of 3 days to 5 days.
Then, the cultured MCF-7 cells were treated with various concentrations (0 μg/mL, 5 μg/mL, 10 μg/mL, 20 μg/mL, 50 μg/mL, 100 μg/mL, or 200 μg/mL) of PPD-type ginsenoside compounds (F2, Rh2, C-K, or PPD) for 24 hours, and the viability of these cells was measured by performing WST-1 assay on the MCF-7 cells (FIG. 1). In particular, WST-1 assay was performed by inoculating each of the MCF-7 cells in a medium containing 10% EZ-Cytox and reacting at 37° C. for 1.5 hours. The level of water-soluble formazan dye produced by the viable cells was measured by absorbance at 450 nm and the results were analyzed to calculate the cell viability of the cells.

[3] = tested on: phosphorylated JNK, cleaved-PARP, cleaved-caspase-9 in MCF-7 cells; test: Western blot of apoptosis-related proteins; type: cell-based, human; details: for level of cleaved-caspase-9 / levels of phosphorylated JNK and cleaved-PARP: ginsenoside 10 μg/mL with doxorubicin 5 μg/mL
Procedure: MCF-7 cells were charged with a medium containing C-K or PPD (10 μg/mL) and cultured for 12 hours, and the medium was replaced with a medium containing C-K or PPD (10 μg/mL) and doxorubicin (0 μg/mL or 5 μg/mL) and cultured for 24 hours. The cells, upon completion of culture, were disrupted and western blot analyses were performed treated with respect to anti-phosphorylated JNK antibody, anti-PARP antibody, anti-cleaved-PARP antibody, and anti-caspase-9 antibody or anti-cleaved-caspase-9 antibody (FIG. 3A).
Accordingly, MCF-7 cells were charged with a medium containing PPD (10 μg/mL) and cultured for 12 hours, and the medium was replaced with a medium containing PPD (10 μg/mL) and doxorubicin (5 μg/mL) and cultured for 0 hours, 0.5 hours, 1 hour, 2 hours, 4 hours, or 6 hours. The same western blot analysis was performed using the cultured cells (FIG. 3B). In particular, as a comparative group, cells cultured in a medium containing doxorubicin alone were used instead of the medium containing PPD and doxorubicin.

MCF-7 cells [4] = test: Anticancer activity with PARP inhibitor or caspase-9 inhibitor pretreatment; type: cell-based, human; details: FIG. 3C; for anticancer activity with PARP activity inhibitor, ginsenoside and doxorubicin treated simultaneously: 3-AB pretreatment, ginsenoside 10 μg/mL, doxorubicin 5 μg/mL
Procedure: Specifically, a medium containing C-K or PPD (10 μg/mL) was added to MCF-7 cells pretreated with Z-LEHD-FMK (i.e., an inhibitor of caspase-9) or 3-AB (i.e., an inhibitor of PARP) and cultured for 12 hours. The medium was then replaced with a medium containing doxorubicin (0 μg/mL or 5 μg/mL) and cultured for 24 hours. The same western blot analysis was performed using the cultured cells (FIG. 3C).

[5] = tested on: cytochrome-C release in MCF-7 cells; test: Cytochrome-C release from mitochondria, immunofluorescent staining; type: cell-based, human; details: for level of cytochrome-C release compared to doxorubicin treatment alone: then doxorubicin 5 μg/mL 4 hours; for cells in which cytochrome-C was released, of the entire cells: 6 hours after the treatment, FIG. 4B
Procedure: MCF-7 cells were charged with a medium containing C-K or PPD (10 μg/mL) and cultured for 24 hours, and the medium was replaced with a medium containing doxorubicin (5 μg/mL) and cultured for 0 hours or 4 hours. The cells, upon completion of culture, were fixed with 4% paraformaldehyde, perforated by adding 0.5% Triton X-100 solution thereto, and the cells were immunostained with anti-cytochrome-C antibody for 30 minutes. Upon completion of the staining, the cells were washed with PBS, reacted with fluorescently-labeled secondary antibody for 30 minutes, washed with PBS, and then photographed using a confocal microscope to measure the levels of fluorescence developed (FIG. 4A).
In this regard, the present inventors have attempted to confirm whether the level of cytochrome-C release can be changed by the treatment time of doxorubicin. That is, the immunostaining was performed in the same manner as described above, except that MCF-7 cells were charged with a medium containing C-K or PPD (10 μg/mL) and cultured for 24 hours, and the medium was replaced with a medium containing doxorubicin (5 μg/mL), and the cells which were cultured for 0 hours, 0.5 hours, 1 hour, 2 hours, 4 hours, or 6 hours were used. Then, the number of cells in which cytochrome-C was released from mitochondria to cytoplasm was measured (FIG. 4B). In particular, an experimental group not treated with ginsenoside was used as a control.

[6] = tested on: mitochondria of MCF-7 cells; test: Mitochondria immunostaining with anti-Tom-20 antibody; type: cell-based, human; details: ginsenoside 10 μg/mL, 24 hours, FIG. 5A
Procedure: That is, MCF-7 cells were charged with a medium containing C-K or PPD (10 μg/mL) and cultured for 24 hours. The cells, upon completion of culture, were fixed with 4% paraformaldehyde, perforated by adding 0.5% Triton X-100 solution thereto, and mitochondria of the cells were immunostained with anti-Tom-20 antibody. Upon completion of staining, the cells were washed with PBS and then photographed using a confocal microscope to measure the levels of fluorescence developed (FIG. 5A).

[7] = tested on: Drp1, Fis1, OPA-3, Mfn1, Mfn2, OPA1 in MCF-7 cells; test: Western blot of mitochondrial fission and fusion proteins; type: cell-based, human; details: ginsenoside 10 μg/mL, 24 hours, FIG. 5B
Procedure: Accordingly, western blot analysis was performed with respect to each of the cultured cells and the expression levels of the proteins (Drp1, Fis1, and OPA-3) involved in mitochondrial fission and those of the proteins (Mfn1, Mfn2, and OPA1) involved in mitochondrial fusion were compared (FIG. 5B).

MCF-7 cells [8] = test: WST-1 viability assay in siRNA-treated cells with doxorubicin or tamoxifen; type: cell-based, human; details: 5 μM doxorubicin or 20 μM tamoxifen, 24 hours, FIG. 6B; for change of anticancer activity where mitochondrial fission was induced by Mfn1 or Mfn2 siRNA: Mfn2 versus Mfn1 inhibition; for anticancer activity (viability of MCF-7 cells): siRNA-introduced cells
Procedure: Meanwhile, each of the synthesized siRNAs was introduced into MCF-7 cells and cultured for 12 hours. The cells were cultured further for 48 hours in a normal medium containing no siRNA, treated with 5 μM doxorubicin or 20 μM tamoxifen, and cultured for 24 hours. Upon completion of culture, the viability of the MCF-7 cells was compared by WST-1 assay (FIG. 6B). In particular, an experimental group not treated with doxorubicin or tamoxifen was used as a control.

[9] = ginsenoside 10 μg/mL 24 hours, FIG. 4A
[10] = ginsenoside 10 μg/mL 24 hours, then doxorubicin 5 μg/mL

| Structure (SMILES) | effect on anticancer activity of doxorubicin (MCF-7 cells [1]; ginsenoside 10 μg/mL 12 hours) | anticancer activity (viability of MCF-7 cells) (MCF-7 cells [2]) | anticancer activity of doxorubicin with ginsenoside compared to doxorubicin alone (MCF-7 cells [1]; FIG. 2B) | level of cleaved-caspase-9 ([3]; 24 hours, FIG. 3A) | levels of phosphorylated JNK and cleaved-PARP ([3]; 24 hours, FIG. 3A) | anticancer activity with PARP activity inhibitor, ginsenoside and doxorubicin treated simultaneously (MCF-7 cells [4]) | level of cytochrome-C release compared to doxorubicin treatment alone [5, 9] | cells in which cytochrome-C was released, of the entire cells [5, 10] [%] | mitochondrial damage [6] | expression level of Mfn2 (mitochondrial fusion protein) [7] | expression level of OPA-3 (mitochondrial fission protein) [7] | change of anticancer activity where mitochondrial fission was induced by Mfn1 or Mfn2 siRNA (MCF-7 cells [8]) | anticancer activity (viability of MCF-7 cells) (MCF-7 cells [8]) | further results |
| --- | --- | --- | --- | --- | --- | --- | --- | --- | --- | --- | --- | --- | --- | --- |
| CC(C)=CCC[C@](C)(O[C@@H]1O[C@H](CO)[C@@H](O)[C@H](O)[C@H]1O)[C@H]1CC[C@]2(C)[C@@H]1[C@H](O)C[C@@H]1[C@@]3(C)CC[C@H](O[C@@H]4O[C@H](CO)[C@@H](O)[C@H](O)[C@H]4O)C(C)(C)[C@@H]3CC[C@]12C [F2, reference compound] | no particular effect on doxorubicin |  |  |  |  |  |  |  |  |  |  |  |  | LC50 of doxorubicin treated simultaneously with ginsenoside (MCF-7 cells [1]; ginsenoside 10 μg/mL 12 hours, then doxorubicin 0-50 μg/mL 24 hours, FIG. 2B): about 10 μg/mL |
| CC(C)=CCC[C@](C)(O)[C@H]1CC[C@]2(C)[C@@H]1[C@H](O)C[C@@H]1[C@@]3(C)CC[C@H](O)C(C)(C)[C@@H]3CC[C@]12C [PPD, protopanaxadiol] | could enhance the anticancer activity of doxorubicin | relatively excellent anticancer activity | increased | significantly increased | not affected | slightly recovered | increased the level of cytochrome-C release | 43 | damage was observed | decreased | increase |  |  | formation of cleaved-PARP and cleaved-caspase-9 according to treatment time ([3]; PPD 10 μg/mL with doxorubicin 5 μg/mL, 0-6 hours, versus doxorubicin alone, FIG. 3B): formed more rapidly |
| COc1cccc2c1C(=O)c1c(O)c3c(c(O)c1C2=O)C[C@@](O)(C(=O)CO)C[C@@H]3O[C@H]1C[C@H](N)[C@H](O)[C@H](C)O1 [doxorubicin, reference compound] |  |  |  |  |  |  |  |  |  |  |  | further increased | significantly high level of anticancer activity | CC50 (MCF-7 cells [1]; Homo sapiens, MCF7, 24 h, read-out: LC50 of doxorubicin): ~10 µg/mL (≈ 18.4 µM); levels of phosphorylated JNK, cleaved-PARP, and cleaved-caspase-9 ([3]; doxorubicin 5 μg/mL, 24 hours, FIG. 3A): increased; anticancer effect of doxorubicin with PARP or caspase-9 activity inhibitor (MCF-7 cells [4]; Z-LEHD-FMK or 3-AB pretreatment, doxorubicin 5 μg/mL 24 hours): inhibited; cells in which cytochrome-C was released, of the entire cells ([5]; doxorubicin 5 μg/mL alone (control)): 7%; level of cytochrome-C release compared to no doxorubicin treatment ([5]; doxorubicin 5 μg/mL, 4 hours, FIG. 4A): increased the level of cytochrome-C release |
| CC/C(=C(\c1ccccc1)c1ccc(OCCN(C)C)cc1)c1ccccc1 [tamoxifen] |  |  |  |  |  |  |  |  |  |  |  | no difference in anticancer activity | showed anticancer activity |  |
| CC(C)=CCC[C@](C)(O[C@@H]1OC(CO)[C@@H](O)C(O)C1O)C1CC[C@]2(C)C1[C@H](O)CC1[C@@]3(C)CCC(O)C(C)(C)C3CC[C@]12C (stereo partly shown) [C-K, compound-K] | could enhance the anticancer activity of doxorubicin | relatively excellent anticancer activity | increased | significantly increased | not affected | slightly recovered | increased the level of cytochrome-C release | 20 | damage was observed | decreased | increase |  |  |  |
